In ChEMBL document CHEMBL1201862, “PubChem BioAssay data set” (2004):
Activity calls are given as the source filed them.

Experiments:
[1] = biological target: Cyclin-dependent kinase 2 (Homo sapiens, UniProt P24941); test: CDK2 kinase inhibitors, off-target check, dose response, selectivity assay for Dyrk1A inhibitor project, biochemical, cherry-picked samples (AID 602127)
[2] = biological target: Dual specificity protein kinase CLK1 (Homo sapiens, UniProt P49759); test: CLK1 kinase inhibitors, off-target check, dose response, selectivity assay for Dyrk1A inhibitor project, biochemical, cherry-picked samples (AID 588811)
Dual specificity protein kinase CLK1, sequence (P49759 whole entry): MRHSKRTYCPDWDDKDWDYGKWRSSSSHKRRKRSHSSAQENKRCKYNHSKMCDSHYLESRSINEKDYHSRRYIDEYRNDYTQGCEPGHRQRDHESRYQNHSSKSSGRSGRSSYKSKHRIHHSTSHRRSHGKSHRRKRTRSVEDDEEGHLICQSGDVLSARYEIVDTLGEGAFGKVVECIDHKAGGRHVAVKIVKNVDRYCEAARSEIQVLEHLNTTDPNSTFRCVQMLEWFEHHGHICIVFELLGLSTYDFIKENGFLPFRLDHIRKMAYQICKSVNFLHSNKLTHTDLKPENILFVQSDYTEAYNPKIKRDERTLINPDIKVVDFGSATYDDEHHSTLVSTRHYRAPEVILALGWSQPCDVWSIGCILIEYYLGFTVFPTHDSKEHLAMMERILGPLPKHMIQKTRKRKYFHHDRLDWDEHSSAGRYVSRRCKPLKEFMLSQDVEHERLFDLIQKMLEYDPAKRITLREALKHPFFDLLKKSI

INS1 [3] = test: protection of INS-1E cells from cytokine death, dose response, ATP luminescence, dry powder (AID 488844); assay type: functional, cell-based; conditions: Rattus norvegicus
INS1 [4] = test: protection from cytokine-induced mitochondrial depolarization, dose response, cell-based, INS-1E, JC-1 fluorescence ratio, dry powder (AID 488931); assay type: functional; conditions: Rattus norvegicus
[5] = biological target: T1, Short transient receptor potential channel 4 (Mus musculus, UniProt Q9QUQ5); test: SAR Analysis for the identification of selective inhibits of the transient receptor potential cation channel C4 (TRPC4): Automated Electrophysiology. [Related pubchem assays (depositor defined):AID2256]; assay type: functional
T1 sequence (Q9QUQ5 whole entry): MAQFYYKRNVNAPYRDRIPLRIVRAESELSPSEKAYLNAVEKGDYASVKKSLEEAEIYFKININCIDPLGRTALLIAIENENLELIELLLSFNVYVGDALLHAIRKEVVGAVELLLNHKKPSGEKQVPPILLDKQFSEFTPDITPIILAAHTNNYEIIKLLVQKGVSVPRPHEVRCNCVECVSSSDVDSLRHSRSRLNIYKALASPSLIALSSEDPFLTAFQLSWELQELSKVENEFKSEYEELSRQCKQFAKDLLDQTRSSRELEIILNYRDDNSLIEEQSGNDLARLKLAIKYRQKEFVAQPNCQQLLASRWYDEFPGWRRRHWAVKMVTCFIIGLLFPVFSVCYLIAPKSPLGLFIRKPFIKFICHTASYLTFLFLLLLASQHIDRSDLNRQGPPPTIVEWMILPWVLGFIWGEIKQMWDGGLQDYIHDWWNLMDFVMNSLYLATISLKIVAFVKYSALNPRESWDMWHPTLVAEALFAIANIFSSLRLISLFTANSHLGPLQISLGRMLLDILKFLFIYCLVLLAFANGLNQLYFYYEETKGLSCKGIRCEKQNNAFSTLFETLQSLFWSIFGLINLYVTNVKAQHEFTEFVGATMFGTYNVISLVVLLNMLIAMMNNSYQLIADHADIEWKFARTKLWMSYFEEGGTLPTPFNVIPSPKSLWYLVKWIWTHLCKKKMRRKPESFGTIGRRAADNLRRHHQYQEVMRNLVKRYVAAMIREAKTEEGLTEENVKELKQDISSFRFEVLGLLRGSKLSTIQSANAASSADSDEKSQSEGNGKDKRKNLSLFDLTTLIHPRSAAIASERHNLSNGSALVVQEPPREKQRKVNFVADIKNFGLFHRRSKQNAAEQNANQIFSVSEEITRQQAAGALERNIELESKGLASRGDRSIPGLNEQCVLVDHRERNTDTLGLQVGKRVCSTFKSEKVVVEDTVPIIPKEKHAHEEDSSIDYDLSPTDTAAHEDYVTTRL

[6] = biological target: Short transient receptor potential channel 6 (Mus musculus, UniProt Q61143); test: TRPC6 inhibition potency of TRPC4 inhibitor analogs, dose response, selectivity assay for selective TRPC4 inhibitor project, HEK293 cells, membrane potential dye, IC50 (AID 492987); assay type: functional, cell-based
Short transient receptor potential channel 6, sequence (Q61143 whole entry): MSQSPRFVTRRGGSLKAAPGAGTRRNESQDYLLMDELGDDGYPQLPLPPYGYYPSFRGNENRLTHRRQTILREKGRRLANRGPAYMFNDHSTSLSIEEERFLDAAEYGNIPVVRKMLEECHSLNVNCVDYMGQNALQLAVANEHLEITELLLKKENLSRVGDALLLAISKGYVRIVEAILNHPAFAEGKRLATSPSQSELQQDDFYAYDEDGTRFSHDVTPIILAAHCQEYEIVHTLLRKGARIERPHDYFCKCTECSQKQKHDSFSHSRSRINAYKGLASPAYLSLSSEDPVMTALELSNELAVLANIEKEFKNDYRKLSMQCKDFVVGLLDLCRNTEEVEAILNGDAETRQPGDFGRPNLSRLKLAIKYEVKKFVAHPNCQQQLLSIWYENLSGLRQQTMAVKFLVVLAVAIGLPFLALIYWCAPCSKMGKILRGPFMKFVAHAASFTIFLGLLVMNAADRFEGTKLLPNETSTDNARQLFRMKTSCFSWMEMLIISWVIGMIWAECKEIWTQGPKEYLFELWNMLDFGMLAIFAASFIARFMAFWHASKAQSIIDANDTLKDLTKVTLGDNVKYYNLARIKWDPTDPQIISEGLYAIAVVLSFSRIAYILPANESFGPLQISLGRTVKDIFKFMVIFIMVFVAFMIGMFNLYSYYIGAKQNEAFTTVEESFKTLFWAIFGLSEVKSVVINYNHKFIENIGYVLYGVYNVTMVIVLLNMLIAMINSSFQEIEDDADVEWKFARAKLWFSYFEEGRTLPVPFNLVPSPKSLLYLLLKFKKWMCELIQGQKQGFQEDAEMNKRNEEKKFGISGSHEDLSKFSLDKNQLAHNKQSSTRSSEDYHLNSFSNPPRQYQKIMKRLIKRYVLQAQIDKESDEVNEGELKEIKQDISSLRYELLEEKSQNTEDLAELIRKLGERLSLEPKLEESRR

[7] = biological target: T1, Short transient receptor potential channel 4; test: TRPC4 inhibitor concentration-response, dose response, cell-based, HEK293 TRPC4/mu-opioid, DAMGO stimulus, Fluo-4 (AID 492994); assay type: functional
BJ [8] = test: cytotoxicity toward BJ-TERT fibroblasts, dose response, cell-based, RAS-independent, luminescence (AID 1933); assay type: functional; conditions: Homo sapiens
BJ [9] = test: cells; assay type: functional, cell-based; conditions: Homo sapiens
BJ [10] = test: cytotoxicity toward BJ-TERT-LT-ST fibroblasts, dose response, cell-based, RAS-independent, luminescence (AID 1935); assay type: functional; conditions: Homo sapiens;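 note: BJ fibroblasts immortalized with TERT plus LT and ST oncogenes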
[11] = cytotoxicity toward DRD oncogenic fibroblasts, dose response, cell-based, non-viral oncogenic, luminescence (AID 1934); assay type: functional; conditions: Homo sapiens
CHO-K1 = test: (§1) Counterscreen for antagonists of the orexin 1 receptor (OX1R; HCRTR1): Homogeneous time resolved fluorescence (HTRF)-based cell-based dose response assay to identify antagonists of the parental CHO-K1 cell line. [Related pubchem assays (depositor defined):AID434989, AID435008, AID463079, AID485270, AID492963, AID492964, AID492965, AID493232, AID504699, AID504701]; assay type: functional; conditions: Cricetulus griseus
[12] = as §1, with “Fluorescence-based” for “Homogeneous time resolved fluorescence (HTRF)-based”, “cell-based high throughput” for “cell-based”, “CHO” for “CHO-K1”; assay type: functional
[13] = biological target: T2, Orexin/Hypocretin receptor type 1 (Homo sapiens, UniProt O43613); test: Homogeneous Time Resolved Fluorescence (HTRF)-based cell-based high throughput dose response assay for antagonists of the orexin 1 receptor (OX1R; HCRTR1). [Related pubchem assays (depositor defined):AID434989, AID435008, AID463079, AID485270, AID492963, AID492964, AID492965, AID493232, AID504717, AID504718]; assay type: functional
T2 sequence (O43613 whole entry): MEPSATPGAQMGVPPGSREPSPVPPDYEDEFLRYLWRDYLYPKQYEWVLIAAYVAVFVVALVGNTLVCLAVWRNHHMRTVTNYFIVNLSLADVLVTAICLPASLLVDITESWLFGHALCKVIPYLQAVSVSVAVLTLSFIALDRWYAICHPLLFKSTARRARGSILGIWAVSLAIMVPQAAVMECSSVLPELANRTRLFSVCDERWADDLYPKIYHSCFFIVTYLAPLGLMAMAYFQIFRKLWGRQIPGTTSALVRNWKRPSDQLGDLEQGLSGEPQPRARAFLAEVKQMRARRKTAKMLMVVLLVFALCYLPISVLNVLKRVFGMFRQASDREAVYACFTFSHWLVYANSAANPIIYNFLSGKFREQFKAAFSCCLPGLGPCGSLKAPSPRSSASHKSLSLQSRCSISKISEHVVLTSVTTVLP

[14] = biological target: T2, Orexin/Hypocretin receptor type 1; test: Fluorescence-based cell-based high throughput dose response assay for antagonists of the orexin 1 receptor (OX1R; HCRTR1). [Related pubchem assays (depositor defined):AID434989, AID435008, AID463079, AID485270, AID492963, AID492964, AID492965, AID493232, AID504717, AID504718]; assay type: functional
Orexin receptor type 2 [15] = biological target: T3, Orexin receptor type 2 (Homo sapiens, UniProt O43614); test: Counterscreen assay for antagonists of the orexin 1 receptor (OX1R; HCRTR1): Fluorescence-based cell-based dose response assay for antagonists of the orexin 2 receptor (OX2R; HCRTR2), run by assay provider.; assay type: functional
T3 sequence (O43614 whole entry): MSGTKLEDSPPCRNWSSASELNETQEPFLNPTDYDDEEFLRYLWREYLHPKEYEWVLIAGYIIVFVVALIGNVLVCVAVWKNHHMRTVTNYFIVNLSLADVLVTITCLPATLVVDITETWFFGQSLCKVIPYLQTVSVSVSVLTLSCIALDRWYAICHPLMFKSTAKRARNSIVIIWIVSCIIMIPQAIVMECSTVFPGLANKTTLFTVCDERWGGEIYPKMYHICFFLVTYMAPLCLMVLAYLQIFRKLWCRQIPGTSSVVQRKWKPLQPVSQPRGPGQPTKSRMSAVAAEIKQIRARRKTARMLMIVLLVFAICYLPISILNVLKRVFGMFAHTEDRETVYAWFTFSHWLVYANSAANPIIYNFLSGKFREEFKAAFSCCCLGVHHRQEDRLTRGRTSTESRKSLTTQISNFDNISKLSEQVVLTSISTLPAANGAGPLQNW

Orexin receptor type 2 [16] = biological target: T3, Orexin receptor type 2; test: Counterscreen assay for antagonists of the orexin 1 receptor (OX1R; HCRTR1): Homogeneous Time Resolved Fluorescence (HTRF)-based cell-based dose response assay for antagonists of the orexin 2 receptor (OX2R; HCRTR2), run by assay provider.; assay type: functional
[17] = Vero cell cytotoxicity, dose response, cytotoxicity control for Vif-APOBEC3G degradation inhibitor project, Vero cells (AID 1117358); assay type: functional; conditions: Human immunodeficiency virus 1, Vero
[18] = tested on: Streptococcus sp. 'group A'; test: growth inhibition of control SK(-) GAS strain, dose response, counter-screen for streptokinase expression inhibitor project, luminescence, kanamycin, BacTiterGlo, confirmation (AID 1900); assay type: functional, organism-based
[19] = biological target: Induced myeloid leukemia cell differentiation protein Mcl-1 (Homo sapiens, UniProt Q07820); assay type: functional
Induced myeloid leukemia cell differentiation protein Mcl-1, sequence (Q07820 whole entry): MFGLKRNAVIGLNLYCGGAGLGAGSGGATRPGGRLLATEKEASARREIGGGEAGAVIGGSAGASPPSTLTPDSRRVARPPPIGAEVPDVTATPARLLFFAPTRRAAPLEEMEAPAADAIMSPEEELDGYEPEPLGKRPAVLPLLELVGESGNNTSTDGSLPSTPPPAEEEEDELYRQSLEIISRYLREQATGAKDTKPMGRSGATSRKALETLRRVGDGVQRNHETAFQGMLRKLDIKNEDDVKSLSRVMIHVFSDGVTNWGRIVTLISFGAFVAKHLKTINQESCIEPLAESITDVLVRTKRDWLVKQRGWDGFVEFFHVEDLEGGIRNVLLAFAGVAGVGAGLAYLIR

Streptococcus = test: Group A Streptococcus viability loss, dose response, counter-screen for streptokinase expression inhibitor project, luminescence, BacTiterGlo (AID 1915); assay type: functional, organism-based;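 note: potency for reduction of bacterial viability or growth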
[20] = biological target: T4, Apoptotic protease-activating factor 1 (Homo sapiens, UniProt O14727); test: activation of Apaf-1 mediated apoptosis – fluorescent, uHTS hits, dose response (AID 588554); assay type: functional
T4 sequence (O14727 whole entry): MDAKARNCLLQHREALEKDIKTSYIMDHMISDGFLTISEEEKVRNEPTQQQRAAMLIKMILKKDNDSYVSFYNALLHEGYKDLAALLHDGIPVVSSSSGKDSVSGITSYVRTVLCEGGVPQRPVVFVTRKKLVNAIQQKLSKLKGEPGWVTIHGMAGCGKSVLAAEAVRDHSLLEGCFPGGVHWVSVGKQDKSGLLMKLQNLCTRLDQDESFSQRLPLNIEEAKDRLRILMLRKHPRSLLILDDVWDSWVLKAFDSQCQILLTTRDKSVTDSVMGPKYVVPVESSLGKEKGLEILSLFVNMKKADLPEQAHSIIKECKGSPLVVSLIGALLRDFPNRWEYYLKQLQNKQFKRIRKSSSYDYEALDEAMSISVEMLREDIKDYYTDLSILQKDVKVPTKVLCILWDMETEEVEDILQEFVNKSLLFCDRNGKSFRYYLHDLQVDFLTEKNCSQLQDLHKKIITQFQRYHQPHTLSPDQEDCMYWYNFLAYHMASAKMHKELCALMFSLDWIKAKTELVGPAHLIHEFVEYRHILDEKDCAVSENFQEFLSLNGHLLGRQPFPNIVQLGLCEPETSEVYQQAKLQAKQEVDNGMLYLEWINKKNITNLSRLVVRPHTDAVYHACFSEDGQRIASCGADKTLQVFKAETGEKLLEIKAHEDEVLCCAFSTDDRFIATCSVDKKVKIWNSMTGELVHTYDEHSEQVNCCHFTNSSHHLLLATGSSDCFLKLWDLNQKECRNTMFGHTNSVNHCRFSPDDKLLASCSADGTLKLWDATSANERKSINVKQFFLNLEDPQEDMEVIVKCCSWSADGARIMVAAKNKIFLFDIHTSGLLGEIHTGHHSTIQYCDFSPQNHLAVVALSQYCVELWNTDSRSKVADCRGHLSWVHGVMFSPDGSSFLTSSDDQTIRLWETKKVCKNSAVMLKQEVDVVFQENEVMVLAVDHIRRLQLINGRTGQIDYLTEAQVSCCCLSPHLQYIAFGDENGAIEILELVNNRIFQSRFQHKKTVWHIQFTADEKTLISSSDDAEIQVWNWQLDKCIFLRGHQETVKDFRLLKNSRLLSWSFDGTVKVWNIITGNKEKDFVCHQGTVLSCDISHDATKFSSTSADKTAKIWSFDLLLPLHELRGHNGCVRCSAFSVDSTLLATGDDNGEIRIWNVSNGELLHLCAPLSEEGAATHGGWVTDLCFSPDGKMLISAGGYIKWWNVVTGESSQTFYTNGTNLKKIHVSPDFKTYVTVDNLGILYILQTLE

[21] = biological target: 26S proteasome non-ATPase regulatory subunit 14 (Homo sapiens, UniProt O00487); test: inhibition of proteasome subunit RPN11 – biochemical, fluorescence polarization, uHTS hits, confirmation (AID 602368); assay type: functional
26S proteasome non-ATPase regulatory subunit 14, sequence (O00487 whole entry): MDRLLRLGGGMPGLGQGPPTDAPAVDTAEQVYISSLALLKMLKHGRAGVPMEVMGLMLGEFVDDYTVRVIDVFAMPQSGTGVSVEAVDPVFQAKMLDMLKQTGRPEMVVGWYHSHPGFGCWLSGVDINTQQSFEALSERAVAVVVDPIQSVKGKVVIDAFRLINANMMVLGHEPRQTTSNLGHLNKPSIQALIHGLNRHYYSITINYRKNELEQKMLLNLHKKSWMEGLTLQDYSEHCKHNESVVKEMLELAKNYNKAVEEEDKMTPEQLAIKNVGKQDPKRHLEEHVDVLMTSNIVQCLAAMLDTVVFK

[22] = biological target: 72 kDa type IV collagenase (Homo sapiens, UniProt P08253); test: Dose Response validation of uHTS RPN11 inhibitor hits using a MMP-2 Fluorescence assay.; assay type: functional
72 kDa type IV collagenase, sequence (P08253 whole entry): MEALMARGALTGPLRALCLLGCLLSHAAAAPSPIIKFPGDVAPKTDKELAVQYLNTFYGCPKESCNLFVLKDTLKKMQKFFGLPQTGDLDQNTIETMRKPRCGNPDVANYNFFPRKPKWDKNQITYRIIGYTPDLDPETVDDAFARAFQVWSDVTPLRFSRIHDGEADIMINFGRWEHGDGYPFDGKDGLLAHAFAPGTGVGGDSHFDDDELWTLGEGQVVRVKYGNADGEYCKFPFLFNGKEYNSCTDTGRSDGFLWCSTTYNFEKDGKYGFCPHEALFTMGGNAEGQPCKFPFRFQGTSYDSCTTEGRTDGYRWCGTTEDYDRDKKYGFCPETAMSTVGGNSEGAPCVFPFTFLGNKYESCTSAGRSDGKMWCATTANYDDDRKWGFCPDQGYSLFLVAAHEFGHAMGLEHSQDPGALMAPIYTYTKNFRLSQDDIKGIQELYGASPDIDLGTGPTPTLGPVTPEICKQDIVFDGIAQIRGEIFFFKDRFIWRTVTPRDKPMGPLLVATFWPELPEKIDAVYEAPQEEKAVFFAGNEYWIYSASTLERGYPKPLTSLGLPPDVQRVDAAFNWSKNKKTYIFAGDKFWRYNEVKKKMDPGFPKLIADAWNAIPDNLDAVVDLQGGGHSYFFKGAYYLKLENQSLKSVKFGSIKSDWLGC

Prothrombin = Prothrombin (Bos taurus, UniProt P00735); test: thrombin inhibition, dose response, biochemical, fluorescence polarization, uHTS hits (AID 602369); assay type: functional
[23] = biological target: Dual specificity protein phosphatase 3 (Homo sapiens, UniProt P51452); test: SAR VHR1 Fluorescent Assay for In Vitro dose response studies Set 3. [Related pubchem assays (depositor defined):AID1654, AID1661, AID1878]; assay type: functional
Dual specificity protein phosphatase 3, sequence (P51452 whole entry): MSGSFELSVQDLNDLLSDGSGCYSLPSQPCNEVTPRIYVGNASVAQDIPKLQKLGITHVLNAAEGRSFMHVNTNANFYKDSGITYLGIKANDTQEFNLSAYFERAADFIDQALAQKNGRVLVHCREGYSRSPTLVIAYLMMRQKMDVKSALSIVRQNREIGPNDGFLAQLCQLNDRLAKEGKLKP

What does the source list for `c1cncc(CNc2nccc(-c3ccc4c(c3)OCO4)n2)c1`?
AC50 [1]: 14.3 µM (active); AC50 [2]: 0.00791 µM (active)

Which results are given for `COc1ccc(S(=O)(=O)N(C)C[C@@H]2Oc3c(NC(=O)Nc4cccc5ccccc45)cccc3C(=O)N([C@@H](C)CO)C[C@@H]2C)cc1`?
AC50 (INS1 [3]): 37.6 µM (active); AC50 (INS1 [4]): 48 µM (active)

What does the source list for `Cc1ccc2nc(N3CCCCC3)cc(C)c2c1`?
IC50 [5]: 5.49 µM (active); IC50 [6]: 8.58 µM (active); IC50 [7]: 10.2 µM (active)

For `Cc1nn(-c2ccccc2)c(C)c1/C=N/NC(=O)c1cc(-c2ccccc2)[nH]n1`, which EC50 (BJ [8]) is on record?
The EC50 was 0.308 µM (active).

What about the EC50 (BJ [9]) of the same compound?
Its EC50 is 37.5 µM (inconclusive).

And the EC50 (BJ [10])?
The EC50 was > 150 µM (inconclusive).

And the EC50 [11]?
The EC50 was 0.659 µM (inconclusive).

And the IC50 (CHO-K1)?
The IC50 was > 66.2 µM (inactive).

And the IC50 [12]?
Its IC50 is > 49.8 µM (inactive).

What about the IC50 [13] of the same compound?
The IC50 was 1.75 µM (active).

What about the IC50 [14] of the same compound?
Its IC50 is 3.67 µM (active).

What about the IC50 (Orexin receptor type 2 [15]) of the same compound?
Its IC50 is 20.6 µM (inactive).

What about the IC50 (Orexin receptor type 2 [16]) of the same compound?
Its IC50 is 18.8 µM (inactive).

And the CC50 [17]?
Its CC50 is 8.77 µM (active).

For `O=C(O)CCCN1C(=O)/C(=C\c2ccc(-c3nc4ccccc4s3)o2)SC1=S`, which EC50 [18] is on record?
Its EC50 is 3.67 µM (active).

And the IC50 [19]?
The IC50 was 1.38 µM (active).

And the EC50 (Streptococcus)?
The EC50 was 7.32 µM (active).

And the EC50 [20]?
Its EC50 is 5.12 µM (active).

And the IC50 [21]?
The IC50 was 5.31 µM (active).

What about the IC50 [22] of the same compound?
The IC50 was > 100 µM (inactive).

And the IC50 (Prothrombin)?
Its IC50 is 70.3 µM (active).

With `COc1cccc2sc(NC(=O)c3ccc(C#N)cc3)nc12` as the compound, how does the IC50 [23] read?
Its IC50 is 57.6 µM (active).
